Columns and labels:
NAD(P)H oxidase = experiment: Non-mitochondrial ROS/H2O2 production by NAD(P)H oxidase (Amplex Red); assay type: biochemical; conditions: no mitochondria; for effect on ROS measurement with NAD(P)H oxidase: 10 to 100 μM; for averaged percentage of ROS production across all concentrations tested: NAD(P)H oxidase, FIG. 22A
Method: Rates of ROS/H2O2 production from heart mitochondria were assessed through the oxidation of the colorless, non-fluorescent indicator Amplex Red in the presence of exogenous horseradish peroxidase (HRP, EC 1.11.1.7, Sigma). H2O2 reacts with Amplex Red in a 1:1 stoichiometry, yielding the fluorescent compound resorufin (excitation: 560 nm; emission: 585 nm) which is stable once formed. Fluorescence was measured continuously with a spectro-fluorometer equipped with temperature control and stirring (SAFAS Xenius, Monaco). Isolated mitochondria (0.1 mg/mL) were incubated in the same experimental buffer than previously, supplemented with 15 μM Amplex Red and 10 μg/mL HRP. Glutamate (5 mM)/malate (2.5 mM) together with succinate (5 mM) were used as complex I and complex II substrates, respectively. Experiments were conducted under non-phosphorylating conditions in the presence of 15 μM atractyloside, i.e., under state IV conditions where […]. Afterwards, rotenone (1.5 μM), antimycin A (2 μM), and myxothiazol (0.2 μM) were sequentially added to inhibit the redox centers within the electron transfer chain (FIG. 2), namely sites IQ, IF (with rotenone), IIIQi (with antimycin A) and IIIQO (with myxothiazol). Assay was finally calibrated with known amounts of H2O2 (steps of 300 nM), in the presence of all relevant compounds, including AOL. The control test of the absence of effect of AOL on the Amplex Red assay itself and NAD(P)H oxidase ROS/H2O2 production was carried out in the absence of cardiac mitochondria and the presence of NAD(P)H oxidase (EC 1.6.3.3, 5 mU/mL, Sigma) and NADH (100 μM) solutions.
The specificity of AOL was further tested in vitro using the peroxidase-Amplex Red system utilized for the measurement of ROS/H2O2 by mitochondria, which in fact measures the appearance of H2O2 by the oxidation of Amplex Red to the fluorescent resorufin (see FIG. 4). In the absence of mitochondria and by adding instead a H2O2-producing system to the measuring system, it was possible to test the effect of AOL on this system. This has been carried out by using commercial NAD(P)H oxidase which produces H2O2 in the presence of added NAD(P)H and measuring the reduction of Amplex Red to resorufin (FIG. 4).
Isolated mitochondria (0.1 mg/mL) were incubated in the same experimental buffer than previously, supplemented with 15 μM Amplex Red and 10 μg/mL HRP. Glutamate (5 mM)/malate (2.5 mM) together with succinate (5 mM) were used as complex I and complex II substrates, respectively. Experiments were conducted under non-phosphorylating conditions in the presence of 15 μM atractyloside. Afterwards, rotenone (1.5 μM), antimycin A (2 μM), and myxothiazol (0.2 μM) were sequentially added to inhibit the redox centers within the electron transfer chain (see FIG. 2), namely sites IQ, IF (with rotenone), IIIQi (with antimycin A) and IIIQO (with myxothiazol). Assay was finally calibrated with known amounts of H2O2 (steps of 300 nM), in the presence of all relevant compounds, including AOX. The control test of the absence of effect of AOL, AOX and Oltipraz on the Amplex Red assay itself and NAD(P)H oxidase […] production was carried out in the absence of cardiac mitochondria and the presence of NAD(P)H oxidase (EC 1.6.3.3, 5 mU/mL, Sigma) and NADH (100 μM) solutions.
The mechanism of action of AOX was further tested in vitro using the peroxidase-Amplex Red system utilized for the measurement of ROS/H2O2 by mitochondria, which in fact measures the appearance of H2O2 by the oxidation of Amplex Red to the fluorescent resorufin (FIG. 22). In the absence of mitochondria and by adding instead a H2O2-producing system to the assay, it was possible to test the effect of AOX on this non-mitochondrial superoxide/H2O2 production. This has been carried out by using commercial NAD(P)H oxidase which produces H2O2 in the presence of added NAD(P)H and measuring the reduction of Amplex Red to resorufin. […]

H460 cells = experiment: Oxygen consumption of resting carcinoma cells (oxygraphy); assay type: cell-based, human; conditions: 0 to 40 μM
Method: Human non-small cell carcinoma cell line H460 and A549 were obtained from ATCC. Cells were cultured in growth medium consisting of DMEM (GIBCO), 10% FBS (GIBCO) and 100 units of penicillin and 100 μg/mL streptomycin (GIBCO). The cells were maintained in either 75-cm^2 T-flasks or 175-cm^2 T-flasks (BD Biosciences) in an incubator (model 3100 series, Forma Scientific, Marietta, Ohio) controlled at 37° C., 95% humidity, and 5% CO2. Cell culture medium was refreshed every other day. Every 2 to 3 days, H460 and A549 cultures were detached from the flasks using a 0.25% trypsin solution (Gibco) and subcultured. All cultures were maintained at 80-90% confluence at the time of subculture.
The effects of AOX (0 to 40 μM) were assessed on carcinoma cells using the classical oxygraphic approach and compared to the effects of sister molecule AOL.
Oxygen consumption of H460 resting cells has been measured continuously and increasing concentrations of AOL and AOX (0 to 40 μM) have been injected to the preparation (FIG. 24).

H460 carcinoma cells = experiment: Transwell cell migration (metastatic activity); assay type: cell-based, human; conditions: AOX 5 and 10 μM, 16 hours
Method: Cell migration assays were performed in Transwells (Corning Inc., 8.0-μm pore size). For migration assay, 2·10^4 cells in serum-free medium were added to the upper wells. Media containing 10% FBS were added to the lower wells. Cells that migrated through the filter after 16 hours were stained with 0.2% crystal violet and counted using the software Image J.
The Transwell test of cell migration has been utilized for this assay and the migration of H460 carcinoma cells has been measured in the presence of two different concentrations of AOX (5 and 10 μM) and compared to the effect of 100 μM N-acetyl cystein (NAC) as a positive control of cytosolic ROS production (FIG. 25).

Row | Structure (SMILES) | effect on ROS measurement with NAD(P)H oxidase (NAD(P)H oxidase) | averaged percentage of ROS production across all concentrations tested (NAD(P)H oxidase) | inhibition of fluorescence in NAD(P)H oxidase/Amplex Red system (NAD(P)H oxidase; results not shown) | rate of oxygen consumption by H460 cells (H460 cells) | metastatic activity (cells crossing the membrane) (H460 carcinoma cells)
1 | COc1ccc(-c2cc(=S)ss2)cc1 [AOL, 5-(4-methoxyphenyl)-3H-1,2-dithiole-3-thione] | no global effect | 99.2% | did not observe any inhibition | no change in the rate of oxygen consumption | –
2 | Oc1ccc(-c2cc(=S)ss2)cc1 [AOX, 5-(4-hydroxyphenyl)-3H-1,2-dithiole-3-thione] | no global effect | 109.9% | – | no change in the rate of oxygen consumption | absence of induction of metastatic activity

Reference: patent publication US11484529B2, “Desmethylanethole trithione derivatives for the treatment of diseases linked to mitochondrial reactive oxygen species (ROS) production” (OP2 Drugs, priority 2017, dated 2022)
